Experimental data from ChEMBL document CHEMBL2385011, “Optimization of a 1,5-dihydrobenzo[b][1,4]diazepine-2,4-dione series of HIV capsid assembly inhibitors 1: addressing configurational instability through scaffold modification” (Bioorg Med Chem Lett, 2013).

Legend:
[1] = target: Structural capsid protein (Human immunodeficiency virus 1, UniProt Q76129); test: Inhibition of HIV1 capsid-nucleocapsid assembly expressed in Escherichia coli BL21(DE3) after 2 hrs by fluorescence assay
[2] = Cytotoxicity against human C8166 cells; format: cell-based
[3] = system: Human immunodeficiency virus 1; test: Antiviral activity against HIV1 infected in human C8166 cells expressing LTR after 3 days by luciferase reporter gene assay; format: functional, organism-based; details: Human immunodeficiency virus 1, C8166, 72 h
[4] = target: Structural capsid protein (Human immunodeficiency virus 1) (UniProt Q76129); test: Inhibition of HIV1 capsid-nucleocapsid assembly expressed in Escherichia coli BL21(DE3) at 3.5 uM after 2 hrs by fluorescence assay relative to control
Sequence of Structural capsid protein (Human immunodeficiency virus 1) (Q76129 as listed by the source): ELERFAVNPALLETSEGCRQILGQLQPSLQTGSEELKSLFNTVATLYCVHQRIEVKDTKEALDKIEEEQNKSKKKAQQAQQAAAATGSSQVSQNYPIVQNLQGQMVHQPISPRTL

Sequence of Structural capsid protein (Q76129 whole entry): as the sequence (Q76129 as listed by the source) above

Row | Structure (SMILES) | IC50 [1] [nM] | CC50 [2] [nM] | EC50 [3] [nM] | inhibition [4] [%]
1 | CCN1C(=O)C2(CC(C(C)C)c3cc(O)ccc32)C(=O)N(c2ccccc2)c2cc(C(F)(F)F)ccc21 (stereo unspecified) | 1100 |  |  | 
2 | CCN1C(=O)C2(CC(C)c3cc(O)ccc32)C(=O)N(c2ccccc2)c2cc(C(F)(F)F)ccc21 (stereo unspecified) | 290 |  |  | 
3 | CCC1CC2(C(=O)N(CC)c3ccc(C(F)(F)F)cc3N(c3ccccc3)C2=O)c2ccc(O)cc21 (stereo unspecified) | 730 |  |  | 
4 | CN1C(=O)C(c2ccccc2)C(=O)N(c2ccccc2)c2cc(C(F)(F)F)ccc21 (stereo unspecified) | 680 |  |  | 
5 | CCN1C(=O)N(c2ccc(C(=O)NC)cc2)C(=O)N(c2ccccc2)c2cc(C(F)(F)F)ccc21 | 130 | 31000 | 480 | 
6 | CCN1C(=O)N(c2cccc(C(=O)NC)c2)C(=O)N(c2ccccc2)c2cc(C(F)(F)F)ccc21 | 280 | > 22000 | 1200 | 
7 | CCN1C(=O)N(c2ccccc2)C(=O)N(c2ccccc2)c2cc(C(F)(F)F)ccc21 | 630 | > 4000 | 600 | 
8 | CCN1C(=O)C2(CCc3cc(O)ccc32)C(=O)N(c2ccccc2)c2cc(C(F)(F)F)ccc21 (stereo unspecified) | 210 | 32000 | 690 | 
9 | CCN1C(=O)N(c2ccc(O)c(C)c2)C(=O)N(c2ccccc2)c2cc(C(F)(F)F)ccc21 | 90 | 17000 | 260 | 
10 | CCN1C(=O)N(c2cc(C)c(O)c(Cl)c2)C(=O)N(c2ccccc2)c2cc(C(F)(F)F)ccc21 | 60 | > 10000 | 150 | 
11 | CCN1C(=O)C2(CCc3c(O)cccc32)C(=O)N(c2ccccc2)c2cc(C(F)(F)F)ccc21 (stereo unspecified) | 240 | > 21000 | 780 | 
12 | CCN1C(=O)C2(CCc3cc(OC)ccc32)C(=O)N(c2ccccc2)c2cc(C(F)(F)F)ccc21 (stereo unspecified) | 160 | > 4000 | 510 | 
13 | CCN1C(=O)C2(CC(O)c3cc(O)ccc32)C(=O)N(c2ccccc2)c2cc(C(F)(F)F)ccc21 (stereo unspecified) | 2100 |  |  | 
14 | CCN1C(=O)N(c2ccc(C)cc2)C(=O)N(c2ccccc2)c2cc(C(F)(F)F)ccc21 | 190 | > 6500 | 540 | 
15 | CN1C(=O)C2(CCc3cc(N)ccc32)C(=O)N(c2ccccc2)c2cc(C(F)(F)F)ccc21 (stereo unspecified) | 160 | > 15000 | 410 | 
16 | CCN1C(=O)N(c2cccc(C(=O)NCCN3CCOCC3)c2)C(=O)N(c2ccccc2)c2cc(C(F)(F)F)ccc21 | 220 | > 19000 | 1100 | 
17 | CN1C(=O)C2(CCc3cc(NC(=O)[C@@H]4CCCN4)ccc32)C(=O)N(c2ccccc2)c2cc(C(F)(F)F)ccc21 (stereo partly specified) | 110 | 11000 | 520 | 
18 | CCN1C(=O)N(c2ccc(O)cc2)C(=O)N(c2ccccc2)c2cc(C(F)(F)F)ccc21 | 50 | 35000 | 380 | 
19 | CCN1C(=O)N(c2ccc(OC)cc2)C(=O)N(c2ccccc2)c2cc(C(F)(F)F)ccc21 | 180 | > 16000 | 720 | 
20 | CCN1C(=O)C(c2ccccc2)C(=O)N(c2ccccc2)c2cc(C(F)(F)F)ccc21 (stereo unspecified) | 730 |  | 2600 | 
21 | CCN1C(=O)N(c2cccc(OC)c2)C(=O)N(c2ccccc2)c2cc(C(F)(F)F)ccc21 | 210 | > 20000 | 1200 | 
22 | CCN1C(=O)C2(CCc3ccc(O)cc32)C(=O)N(c2ccccc2)c2cc(C(F)(F)F)ccc21 (stereo unspecified) | 590 | > 27000 | 1200 | 
23 | CCN1C(=O)C2(CCc3ccccc32)C(=O)N(c2ccccc2)c2cc(C(F)(F)F)ccc21 (stereo unspecified) | 460 | > 16000 | 1600 | 
24 | CN1C(=O)C(C)(c2ccccc2)C(=O)N(c2ccccc2)c2cc(C(F)(F)F)ccc21 (stereo unspecified) |  |  |  | 8
25 | CCN1C(=O)C2(CC(=O)c3cc(O)ccc32)C(=O)N(c2ccccc2)c2cc(C(F)(F)F)ccc21 (stereo unspecified) | 1500 |  |  | 
26 | CCN1C(=O)C2(CC(N)c3cc(O)ccc32)C(=O)N(c2ccccc2)c2cc(C(F)(F)F)ccc21 (stereo unspecified) | 3600 |  |  | 
